System: Trichophyton rubrum
Assay: In vitro flat bed static diffusion model, kill curves of Trichophyton rubrum
Type: cell-based
Conditions: for effect of peroxidase in disc at lowest concentration compared to the test treatment alone: 1 μg ml^−1 enzyme in disc plus active topical treatment; for potentiation of the effects of the topical treatment by peroxidase within the disc (words): 1, 100 and 500 μg/ml enzyme in disc plus active topical treatment; for relative potency of horseradish peroxidase versus lactoperoxidase in enhancing fungal killing (words): enzyme in disc plus active topical treatment
Experimental: Test discs were soaked in 50% serum containing 10^7 fungal cells to re-create a high protein environment. They were placed on a gel bed, also containing 50% serum to mimic contact with the nail bed. The discs were dosed with aqueous solutions of either horse radish peroxidase or lactoperoxidase, each set of discs having different dose levels of the enzymes. Control discs were left with no peroxidase of any kind. The experiment was started by applying hydrogen peroxide generating stratified patches (see below) to the surfaces of most of the test discs, and these were left in place for defined periods of time. Some discs were left uncovered as additional experimental controls to determine how well the fungal cells survived when left untreated. At set time-intervals, representative discs were removed for sampling, and the numbers of surviving fungal cells were determined by standard methods.
An in vitro flat bed static diffusion model was utilised, based upon the techniques described in “In vitro diffusion bed, 3-day repeat challenge ‘capacity’ test for antimicrobial wound dressings”, J. Greenman, R. M. S. Thorn, S. Saad, A. Austin International Wound Journal (2006), 3, 322-329.
The test inoculum was prepared by emulsifying mature surface growth biomass of Trichophyton rubrum on potato dextrose agar in Saboraud liquid medium, removing the suspension, vortex mixing, and then allowing large particles to settle out of solution. The resulting suspension was adjusted via spectrophotometry to give a standardised inoculum around 10^7 cfu ml^−1, which is sufficiently dense to enable any fungicidal effects to be detected (>10^3 cfu reduction is seen as indicative of a cidal effect).
A 100 μl volume of the defined inocula was re-suspended in replicate cellulose discs on the surface of a poly-AMPS test bed (the formulation of which is identical to the Layer 1 hydrogel as described in Example 1, but cast as a 25 g gel sheet per 10×10 cm dish), whereby test products can then be applied (FIG. 1). A two layer dressing was tested. The layers were prepared as described in Example 1. Lactoperoxidase or horse radish peroxidase enzymes were prepared by dissolving in analytical water at the required concentration prior to use. It is thought that lactoperoxidase may potentiate any antifungal effects of the novel topical treatment, and for some of the experimental systems cellulose discs were pre-treated with a lactoperoxidase or horseradish peroxidise solution to ascertain differential effects.
The two layer dressings were activated by bringing the two layers together. The hydrogel sheet was placed into contact with the cellulose disc and the dry film then applied to the uppermost surface of the hydrogel sheet. Test beds were incubated at 28° C., and at set time intervals (0, 1, 2, 4 & 24 h); cellulose discs were removed, re-suspended in PBSa, serially diluted and then spiral plated onto Saboraud dextrose agar. After incubation (5 days) the number of dermatophyte survivors at different time points after treatment exposure was determined by colony counting (cfu disc^−1). The results were graphed and analysed using GraphPad Prism (v.4).

Substance: lactoperoxidase
- effect of peroxidase in disc at lowest concentration compared to the test treatment alone: no significant effect compared to the test treatment alone
- potentiation of the effects of the topical treatment by peroxidase within the disc (words): potentiate the effects of the topical treatment in a concentration dependant manner
- potentiation of the effects of the topical treatment by peroxidase within the disc (words) (listed as peroxidise): potentiate the effects of the topical treatment

Substance: horseradish peroxidase [Horseradish peroxidise]
- effect of peroxidase in disc at lowest concentration compared to the test treatment alone: has a significant effect
- potentiation of the effects of the topical treatment by peroxidase within the disc (words): potentiates the effects of the topical treatment in a concentration dependent manner
- potentiation of the effects of the topical treatment by peroxidase within the disc (words) (listed as horse radish peroxidise): potentiate the effects of the topical treatment
- relative potency of horseradish peroxidase versus lactoperoxidase in enhancing fungal killing (words) (listed as horse radish peroxidase): more potent than lactoperoxidase
- relative potency of horseradish peroxidase versus lactoperoxidase in enhancing fungal killing (words) (listed as horseradish peroxidise): more efficacious
